From PubChem BioAssay AID858 (Vanderbilt High Throughput Screening Facility, 2007)
Calls of active or inactive are those of the source.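 Rule for the calls: active = at least two of three replicate dose series yielding a converging curve fit, whether well or thinly supported; inactive = the rest.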

biological target: D(1A) dopamine receptor (Homo sapiens) (UniProt P21728); test: D1 receptor modulation with EC30 dopamine, dose response, D1 allosteric modulator project, cell-based, CRE-luciferase, HEK293 (AID 858);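 note: HEK 293 cells bearing human D1 receptor stimulated by dopamine at its EC30; luciferase light from a cAMP response element reporter gene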
Sequence (P21728 whole entry, looked up): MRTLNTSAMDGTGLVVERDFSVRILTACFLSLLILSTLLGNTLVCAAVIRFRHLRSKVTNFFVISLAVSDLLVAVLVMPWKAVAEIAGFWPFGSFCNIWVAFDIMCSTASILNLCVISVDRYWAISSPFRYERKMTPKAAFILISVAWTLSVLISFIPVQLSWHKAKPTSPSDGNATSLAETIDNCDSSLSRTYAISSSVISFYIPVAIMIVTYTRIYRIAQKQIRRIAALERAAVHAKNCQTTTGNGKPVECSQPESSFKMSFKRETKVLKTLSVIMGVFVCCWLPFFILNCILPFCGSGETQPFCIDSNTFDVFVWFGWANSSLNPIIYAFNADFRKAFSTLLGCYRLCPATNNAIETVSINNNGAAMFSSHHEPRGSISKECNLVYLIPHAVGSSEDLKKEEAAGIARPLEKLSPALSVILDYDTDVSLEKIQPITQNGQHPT

EC50 | outcome | SMILES
2600 nM |  | CC1(C)Cc2c(C#N)c(NC3CCCCC3)nc(-c3ccco3)c2CO1
 | inactive | O=C(OCCCCN1C(=O)c2ccccc2C1=O)c1n[nH]c2ccccc12
 | inactive | CCCCSc1nc2c(c(=O)n1CC)SC(C)C2 (centres undefined)
 | inactive | Cc1cccc(C2CC(c3ccc(F)cc3)Nc3nc(N)nn32)c1 (centres undefined)
 | inactive | C=C(C)CSc1nc2c(cc1C#N)CCC2
 | inactive | CSc1oc(-c2ccco2)nc1S(=O)(=O)c1ccc(F)cc1
1970 nM |  | COc1ccc(OC)c(/C=N/c2oc(-c3ccco3)c(-c3ccco3)c2C#N)c1
 | inactive | Cc1cc(=O)oc2cc(OCC(=O)NCCc3nc4ccccc4[nH]3)ccc12
 | inactive | CCCSc1nsc(SCCC)c1C(N)=O
 | inactive | CCc1nc2ccccc2c(C(=O)OCC(=O)NCc2ccco2)c1C
 | inactive | COc1ccccc1NC(=O)N(Cc1ccc2c(c1)OCO2)Cc1nc2ccccc2c(=O)[nH]1
 | inactive | CC(C)Cc1nc(N2CCN(C(=O)C(C)C)CC2)c(C#N)c2c1CCC2
 | inactive | COc1ccc(-n2nc3ccccc3n2)cc1
 | inactive | CSC1=NCCN1C(=O)Cc1cccs1
 | inactive | CCOC(=O)c1c(NC(=O)c2cccs2)sc(C)c1CC
 | inactive | COc1ccc(CCN2CCCn3c2nc2c3c(=O)n(Cc3ccccc3F)c(=O)n2C)cc1OC
 | inactive | Cc1ccc(-n2cnnn2)c2cccnc12
 | inactive | CCC(=O)n1nc(-c2ccco2)nc1N
 | inactive | COc1ccc(NC(=O)c2ccc(NS(=O)(=O)c3c(C)noc3C)cc2)cc1OC
 | inactive | CCOC(=O)c1c(-c2cccs2)csc1NC(=O)CSc1ncn[nH]1
 | inactive | Fc1cc(Br)ccc1Nc1nc2ccccc2n2nnnc12
 | inactive | N#Cc1cnn(Cc2ccccc2)c1/N=C/N1CCOCC1

EC50 | outcome | SMILES
 | inactive | Cc1cc(C)nc(SCC(=O)Nc2ncc3c(n2)CC(C)(C)CC3=O)n1
 | inactive | Cc1cc(-c2ccccc2)c(C#N)c(SCC(N)=O)n1
 | inactive | CC1(C)CC(=O)C2=C(C1)OC(N)=C(C#N)C2c1cccc(OC(=O)c2ccco2)c1 (centres undefined)
 | inactive | CC(C)C1C2=C(CC(C)(C)CC2=O)ON1c1ccccc1 (centres undefined)
 | inactive | CSC1=NCCN1C(=O)c1ccc(Br)o1
 | inactive | CCCCn1c(=NC(=O)c2ccco2)c(C(=O)OCC)cc2c(=O)n3ccccc3nc21
 | inactive | Cc1cc(SCC(=O)N2CCC(c3noc4ccc(F)cc34)CC2)nc2ccccc12
 | inactive | CCOC(=O)N1CCC(NC(=O)c2cccc3c2C(=O)N(Cc2cccnc2)C3)CC1
 | inactive | N#CCSc1nc2c(sc(=S)n2Cc2ccco2)c(=O)n1-c1ccc(F)cc1
 | inactive | Clc1ccccc1Cn1nnc2c(N3CCCC3)ncnc21
 | inactive | CCc1ccc2[nH]c(=O)c(CN(Cc3nnnn3C3CCCC3)C3CCCCC3)cc2c1
 | inactive | Cc1sc2ncnc(SCC(=O)N3CCCC3)c2c1C
 | inactive | Cc1cc(NC(=O)COc2nnc(-c3ccccc3)c3ccccc23)no1
 | inactive | CCOC(=O)C1CCCN(C(=O)c2cc(Cl)ccc2Cl)C1 (centres undefined)
 | inactive | COc1ccc(-c2noc(CCC(N)=O)n2)cc1OC
1170 nM |  | N#Cc1c(N)nc(-c2ccccc2)nc1-c1ccccc1
 | inactive | CCC(=O)N1CCc2cc(S(=O)(=O)NCCC(=O)NC3CCCc4ccccc43)ccc21 (centres undefined)
 | inactive | c1csc(-c2nn3c(Cn4nnc5ccccc54)nnc3s2)c1
 | inactive | Cc1ccc(S(=O)(=O)N2CCN(C(=O)COC(=O)c3cc(C)oc3C)CC2)cc1
 | inactive | CC(C)Oc1ccccc1C1CC(=O)Nc2cc3c(cc21)OCCO3 (centres undefined)
 | inactive | COc1ccc(-c2noc(-c3ccco3)n2)cc1OC
 | inactive | COc1ccc(-c2csc3nc(C)n(-n4cccc4)c(=O)c23)cc1OC
